Reference: patent US20240018146A1, “COMPOSITIONS AND METHODS OF USING THE SAME FOR TREATMENT OF NEURODEGENERATIVE AND MITOCHONDRIAL DISEASE” (MITOKININ, INC., priority 2020, published 2024)
Like-named read-outs stand apart in the source and are kept apart here.

Legend:
HeLa MKYP cells [1] = experiment: Human mitophagy assay (HeLa mKeima assay, FACS); type: cell-based; details: read-out: Mitophagy induction EC50
Protocol: Briefly, HeLa MKYP cells were plated at 10,000 cells/well in 96 well plates along with compounds at various concentrations. Following 16 hrs of incubation, cells were treated with 1 uM FCCP/oligomycin for 6 hours, then analyzed via FACS for the presence of mitochondria in lysosomes (as determined by an emissions spectrum shift from the pH-sensitive mtKeima tag).
Briefly, HeLa cells expressing a mitophagy indicator (mtKeima) protein were treated with […] of FCCP and Oligomycin followed by the specified dose of compound, then analyzed by FACS to quantify the percentage of cells undergoing mitophagy.

HeLa MKYP cells [2] = experiment: Cell death measured by DAPI staining, with 1 μM FCCP/oligomycin or no toxin (no FO); type: cell-based
Protocol: EP-0035985, EP-0037821, EP-0038098, and EP-0038099 in the presence of 1 μM FCCP/oligomycin or with no toxin (no FO) for 6 hrs. H2O2 treatment was performed as a control for cell death as measured by DAPI staining.
EP-0035985, EP-0038461, EP-0038463, and EP-0038503 in the presence of 1 μM FCCP/oligomycin or with no toxin (no FO) for 6.5 hrs. H2O2 treatment was performed as a control for cell death as measured by DAPI staining.
EP-0035985, EP-0038504, EP-0038508, and EP-0038521 in the presence of 1 μM FCCP/oligomycin or with no toxin (no FO) for 6.5 hrs. H2O2 treatment was performed as a control for cell death as measured by DAPI staining.
EP-0035985, EP-0038461, EP-0038463, EP-0038503, EP-0038504, EP-0038508, and EP-0038521 in the presence of 1 μM FCCP/oligomycin or with no toxin (no FO) for 6.5 hrs. H2O2 treatment was performed as a control for cell death as measured by DAPI staining.

Row | Structure (SMILES) | EC50 (HeLa MKYP cells [1]; Homo sapiens, HeLa) [µM] | Highest safe dose (cytotoxicity; no FO; safe means DAPI+ <20%) (HeLa MKYP cells [2]) [µM] | Max % death with 1 μM FO (HeLa MKYP cells [2]) [%] | EC50 (HeLa MKYP cells [1]) [µM]
1 | C[C@H]1CN([C@@H]2CCc3ccccc3[C@H]2Nc2ncnc3[nH]c(C(F)(F)F)cc23)CCO1 (single isomer, unassigned) [EP-0040504] | 9.33 | 25.0 | 2.0 | 
2 | Fc1cccc2c1CC[C@H](N1C[C@H]3COC[C@H]3C1)[C@H]2Nc1ncnc2[nH]c(C(F)(F)F)cc12 (single isomer, unassigned) [EP-0040505] | 13.5 | 25.0 | 14.3 | 
3 | C[C@H]1CN([C@@H]2CCc3ccccc3[C@H]2Nc2ncnc3[nH]c(C4CC4)cc23)CCO1 (single isomer, unassigned) [EP-0040512] | 12.1 | 25.0 | 26.7 | 
4 | Fc1ccc2c(c1)OC[C@H](N1C[C@@H]3COC[C@H]3C1)[C@H]2Nc1ncnc2[nH]c(C(F)(F)F)cc12 (single isomer, unassigned) [EP-0040562] | 1.5 | 25.0 | 7.9 | 
5 | Fc1ccc2c(c1)OC[C@H](N1C[C@H]3COC[C@@H]3C1)[C@H]2Nc1ncnc2[nH]c(C(F)(F)F)cc12 (single isomer, unassigned) [EP-0040563] |  | 25.0 | 9.7 | 1.05
6 | Fc1cccc2c1CC[C@H](N1C[C@H]3COC[C@H]3C1)[C@H]2Nc1ncnc2[nH]c(C3CC3)cc12 (single isomer, unassigned) [EP-0040576] | 2.79 | 25.0 | 21.2 | 
7 | CN1CCN([C@H]2CCc3ccccc3[C@@H]2Nc2ncnc3[nH]c(C(F)(F)F)cc23)CC1 (single isomer, unassigned) [EP-0040578] | 3.54 | 25.0 | 14.4 | 
8 | CN1CCN([C@@H]2CCc3ccccc3[C@H]2Nc2ncnc3[nH]c(C(F)(F)F)cc23)CC1 (single isomer, unassigned) [EP-0040579] | 9.02 | 25.0 | 20.3 | 
9 | FC(F)(F)c1cc2c(N[C@@H]3c4ccccc4CC[C@H]3C3CCOCC3)ncnc2[nH]1 (single isomer, unassigned) [EP-0040581] | 2.69 | 25.0 | 8.1 | 
10 | FC(F)(F)c1cc2c(N[C@H]3c4ccccc4OC[C@@H]3C3CCOCC3)ncnc2[nH]1 (single isomer, unassigned) [EP-0040699] | > 25 | 25.0 | 3.7 | 
11 | Fc1ccc2c(c1)CC[C@H](N1C[C@H]3COC[C@H]3C1)[C@H]2Nc1ncnc2[nH]c(C(F)(F)F)cc12 (single isomer, unassigned) [EP-0040720] | 6.25 | 25.0 | 12.1 | 
12 | OC1CC2(C1)CN([C@H]1COc3ccccc3[C@@H]1Nc1ncnc3[nH]c(C(F)(F)F)cc13)C2 (single isomer, unassigned) [EP-0040725] | > 25 | 25.0 | 3.4 | 
13 | Fc1ccc2c(c1)OC[C@H](N1C[C@H]3COC[C@@H]3C1)[C@H]2Nc1ncnc2[nH]c(C(F)(F)F)cc12 (single isomer, unassigned) [EP-0040747] |  | 25.0 | 5.8 | > 25
14 | Fc1ccc2c(c1)OC[C@H](N1C[C@@H]3COC[C@H]3C1)[C@H]2Nc1ncnc2[nH]c(C3CC3)cc12 (single isomer, unassigned) [EP-0040873] |  | 25.0 | 4.3 | > 25
15 | FC(F)(F)c1cc2c(N[C@H]3c4ccccc4OC[C@@H]3C3CCCOC3)ncnc2[nH]1 (single isomer, unassigned) [EP-0041002] | 6.18 | 25.0 | 4.5 | 
16 | FC(F)(F)c1cc2c(N[C@H]3c4ccc(Br)cc4OC[C@@H]3N3CCOCC3)ncnc2[nH]1 (single isomer, unassigned) [EP-0041021] | 3.38 | 25.0 | 13.2 | 
17 | COC[C@@H]1CCN([C@H]2COc3ccccc3[C@@H]2Nc2ncnc3[nH]c(C(F)(F)F)cc23)C1 (single isomer, unassigned) [EP-0041072] |  | 25.0 | 8.0 | > 25
18 | COC1CN([C@H]2COc3cc(F)ccc3[C@@H]2Nc2ncnc3[nH]c(C(F)(F)F)cc23)C1 (single isomer, unassigned) [EP-0041089] | 1.97 | 25.0 | 10.2 | 
19 | COC[C@H]1CCN([C@H]2COc3ccccc3[C@@H]2Nc2ncnc3[nH]c(C(F)(F)F)cc23)C1 (single isomer, unassigned) [EP-0041174] |  | 25.0 | 4.6 | 15.3
20 | [2H]C([2H])([2H])OC1CN([C@H]2COc3ccccc3[C@@H]2Nc2ncnc3[nH]c(C(F)(F)F)cc23)C1 (single isomer, unassigned) [EP-0041248] | 0.49 | 25.0 | 10.5 | 
21 | CC1(O)CN([C@@H]2COc3ccccc3[C@H]2Nc2ncnc3[nH]c(C(F)(F)F)cc23)C1 (single isomer, unassigned) [EP-0041264] | > 25 | 25.0 | 2.5 | 
22 | OC(C1CCOCC1)C1COc2ccccc2C1Nc1ncnc2[nH]c(C(F)(F)F)cc12 (single isomer, unassigned) [EP-0041269] |  | 25.0 | 2.9 | > 25
23 | OC(C1CCOCC1)C1COc2ccccc2C1Nc1ncnc2[nH]c(C(F)(F)F)cc12 (single isomer, unassigned) [EP-0041270] |  | 25.0 | 11.6 | 0.86
24 | COC1(C)CN(C2COc3ccccc3C2Nc2ncnc3[nH]c(C(F)(F)F)cc23)C1 (single isomer, unassigned) [EP-0041300] | 4.35 | 25.0 | 11.1 | 
25 | FC1COCCC1[C@H]1COc2ccccc2[C@@H]1Nc1ncnc2[nH]c(C(F)(F)F)cc12 (single isomer, unassigned) [EP-0041322] |  | 25.0 | 11.0 | > 25
26 | FC1COCCC1[C@H]1COc2ccccc2[C@@H]1Nc1ncnc2[nH]c(C(F)(F)F)cc12 (single isomer, unassigned) [EP-0041323] |  | 25.0 | 9.2 | 11
27 | FC1COCCC1[C@H]1COc2ccccc2[C@@H]1Nc1ncnc2[nH]c(C(F)(F)F)cc12 (single isomer, unassigned) [EP-0041324] |  | 25.0 | 10.4 | 12.3
28 | FC1COCCC1[C@H]1COc2ccccc2[C@@H]1Nc1ncnc2[nH]c(C(F)(F)F)cc12 (single isomer, unassigned) [EP-0041325] |  | 25.0 | 5.5 | 18.8
